Results: patent publication US11047861B2, “Cellular assays with a molecular endpoint measured by SAMDI mass spectrometry” (NORTHWESTERN UNIVERSITY, priority 2015, dated 2021)

Columns and labels:
[1] = system: protein tyrosine phosphatase (PTP); test: TCAL-SAMDI assay of PTP activity, inhibitors applied to cells cultured on the monolayer; assay type: cell-based
Protocol: HeLa cells and MDA-MB-231 cells were obtained from ATCC and cultured in αMEM (for HeLa cells) or high-glucose DMEM (for MDA-MB-231 cells) medium supplemented with 10% fetal bovine serum, glutamax, penicillin and streptomycin. All cells were cultured in a humidified incubator at 37° C. and CO2. Cells were trypsinized and suspended in media, and the average number of cells per μL was counted using a hemocytometer and Countess automated cell counter (Life Technologies), and cell concentrations were adjusted to seed the desired number of cells per spot in 3 μL media. Cells were cultured on the monolayers presenting RGD and peptide substrates on steel plates or glass slides for two hours under standard growth conditions. For PTP activity assays, cells were cultured for two hours before addition of inhibitors, if any. […] A 30 mg/mL solution of 2,4,6-trihydroxyacetophenone in acetone was delivered to each spot on the array and the surfaces were analyzed using an AB Sciex 5800 MALDI TOF/TOF instrument in positive reflector mode. The area under the curves for the [M+H]^+ peaks of disulfides was measured with the Data Explorer software (AB Sciex). […]
MDA-MB-231 cells were seeded at 75 cells per spot on monolayers presenting phosphatase peptide substrates and cyclic RGD as described above. […] IC50 values and curves were determined using GraphPad prism software.

[2] = system: protein tyrosine phosphatase (PTP); test: SAMDI assay of PTP activity in cell lysate treated with inhibitor and applied to the monolayer; assay type: biochemical; settings: treatment of MDA-MB-231 cell lysate (rather than cells), read-out: PTP inhibition, IC50
Protocol: MDA-MB-231 cells were lysed using the lysis buffer containing protease inhibitor described above to achieve the equivalent of 75 cells per 1.5 μL, after mixing with inhibitor solutions. Inhibitor solutions in lysis buffer at concentrations ranging from 0 to 640 μM were added to the lysate and 1.5 μL of the mixture was spotted on monolayers presenting cyclic RGD and phosphatase substrate. The reaction was carried out for 1 hour at 37° C. in a humidified chamber. To evaluate dose-response inhibition under standard culture conditions, MDA-MB-231 cells were plated on a 96-well plate at a density of 6,400 cells per well and cultured for two hours. Culture medium containing inhibitors at final concentrations ranging from 0 to 300 μM and 1% DMSO were delivered to each well and culture proceeded for another two hours. The mixture containing media and inhibitor was removed from each well and centrifuged. Lysis buffer containing protease inhibitor was applied to each well in the plate and incubated for 10 minutes at room temperature. The lysate was collected and added to the corresponding cell pellet for each inhibitor concentration sample. […] Protein concentrations were measured using a BCA assay (Santa Cruz Biotechnology), following manufacturer instructions. […] IC50 values and curves were determined using GraphPad prism software.

| Structure (SMILES) | IC50 ([1]; treatment of cultured MDA-MB-231 cells on monolayer for two hours, then lysis in place, read-out: inhibition of PTP activity, IC50) | IC50 [2] | PTP inhibition ([1]; treatment of cells, inhibitor concentration up to 160 μM) |
| --- | --- | --- | --- |
| O=C(CBr)c1ccc(O)cc1 [PTPI-I] | 14 µM | 83 µM |  |
| O=C1C(=NNc2ccc(S(=O)(=O)O)cc2)C(c2ccc([N+](=O)[O-])cc2)=NN1c1ccccc1 [PHPS1] |  | 75 µM | did not show PTP inhibition |
